Active and inactive are the calls of the source.
How the values were obtained:
INS1 = experiment: beta cell apoptosis inhibitors, cytokine rescue, dose response, luminescence, retest (AID 449756); assay type: functional, cell-based; conditions: Rattus norvegicus;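 also: cell death triggered by IL-1 beta plus TNF-alpha plus IFN-gamma mixture; protective hits raise ATP signal compared with cytokine alone wells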
[1] = tested on: Streptococcus sp. 'group A'; experiment: growth inhibition of control SK(-) GAS strain, dose response, counter-screen for streptokinase expression inhibitor project, luminescence, kanamycin, BacTiterGlo, confirmation (AID 1900); assay type: functional, organism-based
[2] = Counterscreen for AddAB inhibitors: absorbance-based bacterial cell-based high throughput dose response assay for inhibitors of bacterial viability. [Related pubchem assays (depositor defined):AID435030, AID449728, AID449731, AID488942, AID488955, AID488956]; assay type: functional
[3] = molecular target: NACHT, LRR and PYD domains-containing protein 3 (Homo sapiens, UniProt Q96P20); experiment: NALP3 inhibitors in yeast, dose response, luminescent (AID 488799); assay type: functional
[4] = inhibitors of intracellular T. cruzi replication, confirmation, NIH3T3 host cells, beta-gal luminescence (AID 2044); assay type: functional, cell-based;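 also: intracellular parasites grown in NIH/3T3 mouse fibroblasts as host cells; luminescent beta-galactosidase reporter signal from transgenic T. cruzi replicating inside host cells; inhibitors lower the luminescence signal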
Streptococcus = experiment: Group A Streptococcus viability loss, dose response, counter-screen for streptokinase expression inhibitor project, luminescence, BacTiterGlo (AID 1915); assay type: functional, organism-based;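 also: potency for reduction of bacterial viability or growth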
Exodeoxyribonuclease V = molecular target: T1, Exodeoxyribonuclease V (Escherichia coli (strain K12), UniProt P04993+P07648+P08394); experiment: E. coli RecBCD inhibitors, dose response, counter-screen for AddAB inhibitor project, absorbance, V66 E. coli, mutant T4 phage (AID 492957); assay type: functional, cell-based, Escherichia coli str. K-12 substr. MG1655
T1 sequence (P04993 whole entry): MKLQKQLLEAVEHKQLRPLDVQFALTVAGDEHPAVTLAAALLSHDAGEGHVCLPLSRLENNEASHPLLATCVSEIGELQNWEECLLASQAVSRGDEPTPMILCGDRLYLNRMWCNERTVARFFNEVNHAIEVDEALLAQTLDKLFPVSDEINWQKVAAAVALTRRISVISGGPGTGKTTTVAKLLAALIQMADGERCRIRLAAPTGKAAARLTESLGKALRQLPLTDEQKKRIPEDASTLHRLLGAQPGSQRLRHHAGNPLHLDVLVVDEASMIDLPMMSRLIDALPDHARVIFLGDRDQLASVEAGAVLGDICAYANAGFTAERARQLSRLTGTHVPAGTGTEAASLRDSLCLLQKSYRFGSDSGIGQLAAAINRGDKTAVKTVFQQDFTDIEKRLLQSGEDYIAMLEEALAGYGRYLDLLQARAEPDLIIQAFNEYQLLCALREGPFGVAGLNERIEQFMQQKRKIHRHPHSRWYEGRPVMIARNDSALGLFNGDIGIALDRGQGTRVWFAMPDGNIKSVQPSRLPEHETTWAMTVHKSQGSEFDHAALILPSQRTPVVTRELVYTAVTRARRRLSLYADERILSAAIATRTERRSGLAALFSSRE
T1 sequence (P07648 whole entry): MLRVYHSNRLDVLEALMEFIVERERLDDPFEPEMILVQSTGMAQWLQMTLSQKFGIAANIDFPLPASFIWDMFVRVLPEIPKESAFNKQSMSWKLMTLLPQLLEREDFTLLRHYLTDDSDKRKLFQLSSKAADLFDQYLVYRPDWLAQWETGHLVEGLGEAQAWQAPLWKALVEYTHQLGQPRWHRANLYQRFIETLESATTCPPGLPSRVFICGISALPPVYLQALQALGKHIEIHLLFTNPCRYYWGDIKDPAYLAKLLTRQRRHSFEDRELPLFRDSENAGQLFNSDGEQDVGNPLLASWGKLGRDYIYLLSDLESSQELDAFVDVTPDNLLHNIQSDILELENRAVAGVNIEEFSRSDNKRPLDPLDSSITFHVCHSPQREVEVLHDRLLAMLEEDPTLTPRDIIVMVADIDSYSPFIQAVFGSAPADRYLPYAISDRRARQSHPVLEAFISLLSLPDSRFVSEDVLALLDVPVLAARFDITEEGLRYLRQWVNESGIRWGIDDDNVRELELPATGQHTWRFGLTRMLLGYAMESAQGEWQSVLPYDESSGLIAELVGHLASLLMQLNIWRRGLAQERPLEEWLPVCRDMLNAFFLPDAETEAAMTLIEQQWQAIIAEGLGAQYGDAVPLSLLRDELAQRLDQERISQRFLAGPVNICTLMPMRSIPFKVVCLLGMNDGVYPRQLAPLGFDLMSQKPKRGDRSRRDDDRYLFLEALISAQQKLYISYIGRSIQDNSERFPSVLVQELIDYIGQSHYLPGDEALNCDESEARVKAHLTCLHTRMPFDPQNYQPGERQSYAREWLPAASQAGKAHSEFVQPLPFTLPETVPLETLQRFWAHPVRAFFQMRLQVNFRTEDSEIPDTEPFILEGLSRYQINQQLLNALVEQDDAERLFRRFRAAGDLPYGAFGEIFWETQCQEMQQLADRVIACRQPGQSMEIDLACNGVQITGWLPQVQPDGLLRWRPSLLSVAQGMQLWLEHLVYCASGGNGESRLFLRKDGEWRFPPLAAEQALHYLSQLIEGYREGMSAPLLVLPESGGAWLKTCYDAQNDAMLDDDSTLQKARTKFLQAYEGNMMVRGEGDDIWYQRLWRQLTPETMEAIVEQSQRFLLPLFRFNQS
T1 sequence (P08394 whole entry): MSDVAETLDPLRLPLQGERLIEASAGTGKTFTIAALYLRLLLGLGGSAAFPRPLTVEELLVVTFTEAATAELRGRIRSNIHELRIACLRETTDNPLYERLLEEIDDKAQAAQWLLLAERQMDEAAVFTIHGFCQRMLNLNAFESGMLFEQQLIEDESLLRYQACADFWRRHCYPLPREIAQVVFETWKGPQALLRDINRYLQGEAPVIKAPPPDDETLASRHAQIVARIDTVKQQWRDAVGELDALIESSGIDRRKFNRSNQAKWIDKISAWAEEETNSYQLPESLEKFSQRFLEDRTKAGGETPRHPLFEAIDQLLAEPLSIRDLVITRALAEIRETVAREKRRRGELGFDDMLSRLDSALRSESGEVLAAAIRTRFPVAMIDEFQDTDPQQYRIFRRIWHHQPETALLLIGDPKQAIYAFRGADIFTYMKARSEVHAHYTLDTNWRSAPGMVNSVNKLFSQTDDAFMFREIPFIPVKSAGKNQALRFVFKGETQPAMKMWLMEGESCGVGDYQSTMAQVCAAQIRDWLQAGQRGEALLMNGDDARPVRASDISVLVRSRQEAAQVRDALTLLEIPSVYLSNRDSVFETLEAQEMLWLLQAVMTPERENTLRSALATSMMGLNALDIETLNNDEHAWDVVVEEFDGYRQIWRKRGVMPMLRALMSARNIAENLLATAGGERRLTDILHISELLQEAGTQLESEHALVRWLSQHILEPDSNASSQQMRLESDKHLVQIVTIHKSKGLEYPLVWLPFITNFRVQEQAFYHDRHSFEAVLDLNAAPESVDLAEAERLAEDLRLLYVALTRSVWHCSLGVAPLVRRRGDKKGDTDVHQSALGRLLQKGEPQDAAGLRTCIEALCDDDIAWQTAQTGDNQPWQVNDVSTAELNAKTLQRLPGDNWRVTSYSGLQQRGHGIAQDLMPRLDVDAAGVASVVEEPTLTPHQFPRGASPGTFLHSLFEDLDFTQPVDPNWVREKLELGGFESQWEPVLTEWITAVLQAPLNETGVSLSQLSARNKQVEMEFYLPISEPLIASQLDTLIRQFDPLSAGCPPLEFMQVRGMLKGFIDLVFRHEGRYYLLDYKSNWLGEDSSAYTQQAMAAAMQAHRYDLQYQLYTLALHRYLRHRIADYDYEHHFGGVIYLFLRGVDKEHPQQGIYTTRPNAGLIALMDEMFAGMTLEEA

Streptokinase A = molecular target: T2, Streptokinase A (Streptococcus pyogenes serotype M1, UniProt P10520); experiment: S. pyogenes streptokinase expression inhibitors, potency, dose response, plasminogen activation absorbance, OD405 (AID 1914); assay type: functional, Streptococcus pyogenes M1 GAS;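 also: secreted streptokinase activity via plasminogen activation per viability signal from cell pellet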
T2 sequence (P10520 whole entry): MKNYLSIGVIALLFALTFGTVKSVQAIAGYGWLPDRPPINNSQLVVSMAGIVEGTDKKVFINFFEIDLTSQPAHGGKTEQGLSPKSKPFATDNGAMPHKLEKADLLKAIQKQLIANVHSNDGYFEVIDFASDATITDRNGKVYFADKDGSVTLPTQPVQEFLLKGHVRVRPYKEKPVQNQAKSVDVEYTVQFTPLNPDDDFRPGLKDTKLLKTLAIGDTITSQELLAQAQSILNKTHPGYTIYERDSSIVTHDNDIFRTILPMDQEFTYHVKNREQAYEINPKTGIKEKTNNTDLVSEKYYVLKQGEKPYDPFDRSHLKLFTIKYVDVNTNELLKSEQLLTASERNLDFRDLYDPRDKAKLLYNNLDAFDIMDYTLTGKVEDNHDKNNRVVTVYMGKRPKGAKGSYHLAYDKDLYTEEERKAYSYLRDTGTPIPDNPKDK

[5] = cytotoxicity toward NIH3T3 fibroblasts, dose response, counter-screen, cell-based, ATP luminescence, mouse fibroblasts (AID 2010); assay type: functional;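 also: cells exposed to compound for about 90 hours before reading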
[6] = molecular target: T3, Neuropeptides B/W receptor type 1 (Homo sapiens, UniProt P48145); experiment: GPR7 antagonist potency, late-stage follow-up, cell-based, fluorescence, dose response (AID 463251); assay type: functional
T3 sequence (P48145 whole entry): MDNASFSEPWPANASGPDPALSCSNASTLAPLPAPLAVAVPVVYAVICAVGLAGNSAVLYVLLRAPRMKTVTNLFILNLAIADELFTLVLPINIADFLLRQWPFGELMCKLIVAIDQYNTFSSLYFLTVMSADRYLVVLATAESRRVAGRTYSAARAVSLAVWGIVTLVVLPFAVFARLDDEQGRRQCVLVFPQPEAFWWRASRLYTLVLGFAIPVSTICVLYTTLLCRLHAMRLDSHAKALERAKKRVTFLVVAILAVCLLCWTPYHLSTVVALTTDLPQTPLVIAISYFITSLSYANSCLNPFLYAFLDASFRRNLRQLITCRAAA

[7] = molecular target: Female germline-specific tumor suppressor gld-1 (Caenorhabditis elegans, UniProt Q17339); experiment: inhibitors of GLD-1 binding to TGE RNA, dose response, biochemical, fluorescence polarization, C. elegans (AID 2802);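 also: fluorescence polarization of labeled TGE RNA bound by purified gld-1 protein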
Protein Rev = Protein Rev (Human immunodeficiency virus type 1 group M subtype B (isolate HXB2)(HIV-1), UniProt P04618); experiment: inhibitors of Rev binding to RRE RNA, dose response, biochemical, fluorescence polarization, HIV-1 (AID 434976); parameters: species or system Human immunodeficiency virus 1
Sequence of Protein Rev (P04618 whole entry): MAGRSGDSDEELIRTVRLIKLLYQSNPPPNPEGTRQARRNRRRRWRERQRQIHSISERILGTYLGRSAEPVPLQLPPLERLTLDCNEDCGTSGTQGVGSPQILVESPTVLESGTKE

Sequence of Female germline-specific tumor suppressor gld-1 (Q17339 whole entry): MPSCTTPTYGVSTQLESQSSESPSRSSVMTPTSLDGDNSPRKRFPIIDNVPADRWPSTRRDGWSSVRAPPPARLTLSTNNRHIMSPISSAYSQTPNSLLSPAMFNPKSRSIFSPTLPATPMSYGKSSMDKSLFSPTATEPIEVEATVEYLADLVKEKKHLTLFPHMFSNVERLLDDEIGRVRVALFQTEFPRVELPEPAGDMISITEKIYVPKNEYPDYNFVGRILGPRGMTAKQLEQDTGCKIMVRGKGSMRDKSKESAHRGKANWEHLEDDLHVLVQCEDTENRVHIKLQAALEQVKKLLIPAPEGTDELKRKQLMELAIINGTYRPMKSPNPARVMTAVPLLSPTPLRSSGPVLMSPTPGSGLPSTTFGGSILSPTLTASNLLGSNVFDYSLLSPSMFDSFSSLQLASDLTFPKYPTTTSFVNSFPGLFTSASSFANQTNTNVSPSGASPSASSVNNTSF
Sequence of NACHT, LRR and PYD domains-containing protein 3 (Q96P20 whole entry, the tested form may be a part): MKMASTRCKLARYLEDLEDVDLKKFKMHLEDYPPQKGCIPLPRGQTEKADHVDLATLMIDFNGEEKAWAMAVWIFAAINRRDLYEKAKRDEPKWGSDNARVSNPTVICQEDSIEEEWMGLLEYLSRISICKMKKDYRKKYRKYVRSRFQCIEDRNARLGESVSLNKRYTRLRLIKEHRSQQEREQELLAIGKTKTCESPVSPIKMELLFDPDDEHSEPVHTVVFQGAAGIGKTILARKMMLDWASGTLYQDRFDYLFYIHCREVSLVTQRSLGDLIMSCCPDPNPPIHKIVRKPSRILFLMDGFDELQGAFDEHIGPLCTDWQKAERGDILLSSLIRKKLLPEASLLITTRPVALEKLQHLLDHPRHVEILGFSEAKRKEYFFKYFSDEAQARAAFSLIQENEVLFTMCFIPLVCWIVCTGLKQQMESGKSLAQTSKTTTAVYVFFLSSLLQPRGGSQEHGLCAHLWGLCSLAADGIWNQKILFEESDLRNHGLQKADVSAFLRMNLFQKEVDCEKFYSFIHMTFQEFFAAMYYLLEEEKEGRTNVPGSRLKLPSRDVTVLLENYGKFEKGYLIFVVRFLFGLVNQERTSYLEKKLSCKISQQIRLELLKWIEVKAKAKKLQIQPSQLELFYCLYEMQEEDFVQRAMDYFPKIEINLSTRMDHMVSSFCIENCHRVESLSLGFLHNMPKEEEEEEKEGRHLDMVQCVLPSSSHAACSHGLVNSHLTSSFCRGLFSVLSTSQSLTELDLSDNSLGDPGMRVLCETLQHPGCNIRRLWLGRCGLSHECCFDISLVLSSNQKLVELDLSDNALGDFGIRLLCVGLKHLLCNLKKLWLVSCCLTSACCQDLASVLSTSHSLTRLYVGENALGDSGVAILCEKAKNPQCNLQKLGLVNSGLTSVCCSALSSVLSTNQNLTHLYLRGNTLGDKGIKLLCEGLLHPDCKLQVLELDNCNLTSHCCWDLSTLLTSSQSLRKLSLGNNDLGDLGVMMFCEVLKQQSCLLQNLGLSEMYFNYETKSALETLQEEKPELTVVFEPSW

In the case of `N#Cc1ccc(NC(=O)Nc2ccc(Cl)cc2)cc1`, the AC50 (INS1) is reported as 4 µM (active), the EC50 [1] is reported as 31.4 µM (active) and the IC50 [2] is reported as > 119 µM (inactive). The IC50 [3] was 3.53 µM (active), the EC50 [4] was 2.67 µM (active) and the EC50 (Streptococcus) was > 150 µM (not active). The IC50 (Exodeoxyribonuclease V) was > 119 µM (inactive), the EC50 (Streptokinase A) was > 150 µM (not active) and the EC50 [5] was 7.48 µM (active).
With `COc1ccc(Oc2c(C)cnn(-c3ccccc3)c2=O)cc1` the IC50 [6] was > 20 µM (inactive).
For `Nc1cccc2c1C(=O)N(Cc1cccc(Cl)c1)C2=O`, the IC50 [7] was 4.97 µM (active) and the IC50 (Protein Rev) was 17.9 µM (not active).

From ChEMBL document CHEMBL1201862, “PubChem BioAssay data set” (2004)
